{"source": "paper PMC5306082", "about": "“Physiologically based kinetic modeling of the bioactivation of myristicin” (Archives of Toxicology, 2016)", "type_in_all_cases": "in vitro ADME", "key": {"[1]": {"assay": "Sulfonation of 1′-hydroxymyristicin, human liver S9", "conditions": "S9 protein yield 143 mg/g liver", "procedure": "The formation of 1′-sulfoxymyristicin was determined using incubations containing male rat liver Sprague–Dawley or pooled gender human liver S9 proteins, PAPS as a cofactor, and GSH, which acts as a scavenger of the reactive carbocation formed due to the unstable nature of the 1′-sulfoxy metabolite in an aqueous environment (van den Berg et al. [2012]; Martati et al. [2011]; Al-Subeihi et al. [2011]). Incubation mixtures containing (final concentrations) 10 mM of GSH, 0.2 mM of PAPS, and 3 mg/ml of S9 proteins in 0.1 M potassium phosphate (pH 8.2) were pre-incubated for 1 min at 37 °C. After the pre-incubation, 1′-hydroxymyristicin dissolved in DMSO was added in final concentrations ranging between 10 and 6000 μM while keeping the final content of DMSO at 1 % (v/v). The reaction was terminated after 360 min of incubation by adding 25 μl (0.25 times the incubation volume) of ice-cold ACN. The formation of the GSH conjugate of 1′-sulfoxymyristicin was linear with time and S9 protein concentrations under the experimental conditions used. Blank incubations were performed in the absence of PAPS. Incubations were performed in triplicate. All samples were centrifuged for 5 min at 16,000×g, and the supernatant was stored at −20 °C until ultra-performance liquid chromatography (UPLC) analysis.\nQuantification of 1′-sulfoxymyristicin was done using UPLC analysis as described for the estimation of 1′-sulfoxysafrole (Martati et al. [2011]). […] The gradient for analysis of the metabolite consisted of a mixture of ACN and ultrapure water containing 0.1 % (v/v) TFA. The flow rate was 0.6 ml/min, starting at 0 % ACN and increasing the percentage of ACN to 20 % over 0.2 min, followed by an increase to 30 % ACN over 4.3 min, then increasing to 100 % over 0.3 min, and keeping it at 100 % for 0.2 min, and finally decreasing to 0 % over 0.2 min and keeping it at 0 % for 0.8 min. Separation and purification of the GSH adduct of 1′-sulfoxymyristicin was performed by collecting the peak of the metabolite from the UPLC column. […]"}, "[2]": {"assay": "Oxidation of 1′-hydroxymyristicin to 1′-oxomyristicin, rat liver microsomes", "conditions": "rat vs human", "procedure": "(§1) The kinetic constants for the enzymatic conversion of 1′-hydroxymyristicin to 1′-oxomyristicin were determined using incubation mixtures containing (final concentrations) 3 mM NAD^+, 2 mM GSH, and 1 mg/ml rat or human liver microsomes in 0.2 M Tris–HCl (pH 7.4). GSH was added to the incubation mixtures to trap the reactive 1′-oxo metabolite formed after oxidation of 1′-hydroxymyristicin. The level of GSH in the incubations was optimized in a previous study to obtain maximum scavenging of 1′-oxoestragole (Punt et al. [2009]). To this end, incubations were performed in the presence of increasing concentrations of GSH, ranging from 2 to 10 mM. […] Kinetic constants for this reaction in rat and human liver were derived by performing incubations with NAD^+ as a cofactor, given that in rat and human liver, NAD^+ is mainly present in an oxidized form with levels of NAD^+ being much higher than those of NADH. In a previous study, it was shown that the highest level of 1′-hydroxy alkenylbenzene oxidation occurs in incubations with microsomes in the presence of NAD^+ as cofactor. […] The enzyme responsible for the oxidation may be 17β-hydroxysteroid dehydrogenase type 2 (17β-HSD2) (Punt et al. [2010]). Prior to the addition of 1′-hydroxymyristicin at final concentrations ranging between 10 and 4000 μM to the incubation mixture from 100 times concentrated stock solutions in DMSO, samples were pre-incubated for 1 min at 37 °C. Reactions were terminated after 10 min of incubation at 37 °C by adding 25 μl (0.25 times the incubation volume) of ice-cold ACN. The formation of the GSH conjugate of 1′-oxomyristicin (GS-1′-oxomyristicin) was linear with time and microsomal protein concentration under the experimental conditions used. Blank incubations were performed without the cofactor NAD^+. Incubations were performed in triplicate. All samples were centrifuged for 5 min at 13,000×g, and the supernatant was stored at −20 °C until UPLC analysis.\n(§2) Quantification of GS-1′-oxomyristicin was based on a calibration curve of the GSH adduct of the synthesized 1′-oxymyristicin made as previously described (van den Berg et al. [2012]; Punt et al. [2009]; Martati et al. [2011]; Al-Subeihi et al. [2011]). In short, a 60 μM concentration of the synthetic standard of 1′-oxomyristicin, dissolved in ACN, was incubated with different concentrations of GSH (i.e., 0–20 μM) in 0.2 M Tris–HCl (pH 7.4) for 6 h at 37 °C, resulting in full conversion of the GSH to GS-1′-oxymyristicin. Quantification was done by comparing the peak areas of the formed GS-1′-oxo metabolite in the incubation mixtures with peak areas of the GS-1′-oxymyristicin calibration curve thus obtained at a wavelength of 212 nm. The gradient for analysis of the metabolite consisted of a mixture of ACN and ultrapure water containing 0.1 % (v/v) TFA. The flow rate was 0.6 ml/min, The gradient started with 10 % ACN, increased to 30 % ACN over 2.5 min, after which ACN was increased to 80 % over 0.5 min, kept at 80 % for 0.5 min, followed by a decrease to 10 % over 0.5 min, and finally kept at 10 % for 0.5 min."}, "[3]": {"assay": "Oxidation of 1′-hydroxymyristicin to 1′-oxomyristicin, human liver microsomes", "conditions": "human vs rat", "procedure": "as §1, §2"}}, "data": [{"compound": "C=CC(O)c1cc(OC)c2c(c1)OCO2", "note": "(stereo not drawn) [1′-Hydroxymyristicin, 1′-hydroxymyristicin]", "values": [{"measurement": "k Scaled", "setting": "[1]", "value": 0.14, "unit": "ml/hr/g tissue"}, {"measurement": "oxidation, fold lower affinity in rat than in human", "setting": "[2]", "value": 1.8, "unit": "fold"}, {"measurement": "oxidation, times more efficient in human liver than in male rat liver", "setting": "[3]", "value": 1.2, "unit": "times"}]}]}
